Measurements as given in patent US6737383B1, “Herbicidal oxadiazolidines” (priority 1999, dated 2004).

How the values were obtained:
smallflower flatsedge = assay: Test B flood test smallflower flatsedge; assay type: in vivo, Cyperus difformis
Summary of the method: (§1)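 Read-out is a visual response score from 0 (no effect) to 10 (complete control), assigned by comparison with untreated controls. Treatment was applied at the 2-leaf stage, and plants stayed in the greenhouse for twelve to sixteen days before scoring.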

bedstraw = assay: Test B pre/postemergence bedstraw; assay type: in vivo, Galium aparine; conditions: Preemergence; for Bedstraw plant response rating: scale 0 to 10, 0 is no effect, 10 is complete control
Summary of the method: (§2)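 Test chemicals in a non-phytotoxic solvent mixture with surfactant were sprayed preemergence onto planted seeds and postemergence onto plants 2 to 18 cm tall (1- to 4-leaf stage). After twelve to sixteen days in a greenhouse, injury was visually rated against untreated controls from 0 (no effect) to 10 (complete control).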

giant foxtail = assay: Test B pre/postemergence giant foxtail; assay type: in vivo, Setaria faberii
Summary of the method: as §2

duck salad = assay: Test B flood test duck salad; assay type: in vivo, Heteranthera limosa
Summary of the method: as §1

crabgrass = assay: Test B pre/postemergence crabgrass; assay type: in vivo, Digitaria sanguinalis
Summary of the method: as §2

corn = assay: Test B pre/postemergence corn; assay type: in vivo, Zea mays
Summary of the method: as §2

bamyardgrass = assay: Test B flood test barnyardgrass; assay type: in vivo, Echinochloa crus-galli
Summary of the method: as §1

soybean = assay: Test B pre/postemergence soybean; assay type: in vivo, Glycine max
Summary of the method: as §2

rice = assay: Test B flood test rice; assay type: in vivo, Oryza sativa
Summary of the method: as §1

blackgrass = assay: Test B pre/postemergence blackgrass; assay type: in vivo, Alopecurus myosuroides
Summary of the method: as §2

morningglory = assay: Test B pre/postemergence morningglory; assay type: in vivo, Ipomoea hederacea
Summary of the method: as §2

cocklebur = assay: Test B pre/postemergence cocklebur; assay type: in vivo, Xanthium strumarium
Summary of the method: as §2

pigweed = assay: Test B pre/postemergence pigweed; assay type: in vivo, Amaranthus retroflexus
Summary of the method: as §2

wild oat = assay: Test B pre/postemergence wild oat; assay type: in vivo, Avena fatua
Summary of the method: as §2

sugar beet = assay: Test B pre/postemergence sugar beet; assay type: in vivo, Beta vulgaris
Summary of the method: as §2

wheat = assay: Test B pre/postemergence wheat; assay type: in vivo, Triticum aestivum
Summary of the method: as §2

rape = assay: Test B pre/postemergence rape; assay type: in vivo, Brassica napus
Summary of the method: as §2

surinam grass = assay: Test B pre/postemergence surinam grass; assay type: in vivo, Brachiaria decumbens
Summary of the method: as §2

purple nutsedge = assay: Test B pre/postemergence purple nutsedge; assay type: in vivo, Cyperus rotundus
Summary of the method: as §2

velvetleaf = assay: Test B pre/postemergence velvetleaf; assay type: in vivo, Abutilon theophrasti
Summary of the method: as §2

[1] = Rate 62 g/ha, flood test species, Pre-emergence, visual evaluation after twelve to sixteen days
[2] = Rate 125 g/ha, under heading Pre-emergence, flood test species, visual evaluation after twelve to sixteen days
[3] = Rate 250 g/ha, Pre-emergence (flood test species), scale 0 to 10, 0 is no effect, 10 is complete control
[4] = Rate 500 g/ha, Pre-emergence section of Table B, 0 to 10 scale (0 no effect, 10 complete control)
[5] = Postemergence, Rate 62 g/ha, scale of 0 to 10, 0 is no effect, 10 is complete control
[6] = Postemergence, Rate 125 g/ha, scale 0 to 10, 0 is no effect, 10 is complete control
[7] = Postemergence, Rate 500 g/ha, scale 0 to 10, 0 is no effect, 10 is complete control
[8] = Preemergence, Rate 62 g/ha, scale of 0 to 10 where 0 is no effect and 10 is complete control
[9] = Preemergence, Rate 125 g/ha, scale 0 to 10, 0 is no effect, 10 is complete control
[10] = Preemergence, Rate 500 g/ha, scale of 0 to 10 where 0 is no effect and 10 is complete control
[11] = Postemergence, Rate 250 g/ha, scale 0 to 10
[12] = Preemergence, Rate 250 g/ha, scale 0 to 10, 0 is no effect, 10 is complete control

CC(C)N(C(=O)n1oc(=O)n(CC2CC2)c1=O)c1ccc(F)cc1F [Compound 509]
Plant response rating, S. Flatsedge (0 to 10 scale, 0 is no effect, 10 is complete control) (smallflower flatsedge; [1]): 0 | S. Flatsedge plant response rating (0 to 10 scale, 0 is no effect, 10 is complete control) (smallflower flatsedge; [2]): 0 | S. Flatsedge plant response rating (smallflower flatsedge; [3]): 0 | S. Flatsedge plant response rating (smallflower flatsedge; [4]): 0 | Plant response rating, Bedstraw (bedstraw; Rate 62 g/ha, scale of 0 to 10 where 0 is no effect and 10 is complete control): 0 | Bedstraw plant response rating (bedstraw; Rate 125 g/ha): 0 | Bedstraw plant response rating (bedstraw; Rate 250 g/ha): 10 | Bedstraw plant response rating (bedstraw; Rate 500 g/ha): 9 | Giant foxtail plant response rating (giant foxtail; [5]): 3 | Giant foxtail plant response rating (giant foxtail; [6]): 7 | Plant response rating, Giant foxtail (giant foxtail; [7]): 8 | Plant response rating, Giant foxtail (giant foxtail; [8]): 9 | Giant foxtail plant response rating (giant foxtail; [9]): 9 | Giant foxtail plant response rating (giant foxtail; [10]): 10 | Plant response rating, Ducksalad (0 to 10 scale, 0 is no effect, 10 is complete control) (duck salad; [1]): 0 | Ducksalad plant response rating (0 to 10 scale, 0 is no effect, 10 is complete control) (duck salad; [2]): 0 | Ducksalad plant response rating (duck salad; [3]): 0 | Ducksalad plant response rating (duck salad; [4]): 0 | Crabgrass plant response rating (crabgrass; [5]): 3 | Crabgrass plant response rating (crabgrass; [6]): 9 | Crabgrass plant response rating (crabgrass; [11]): 9 | Plant response rating, Crabgrass (crabgrass; [7]): 9 | Plant response rating, Crabgrass (crabgrass; [8]): 3 | Crabgrass plant response rating (crabgrass; [9]): 7 | Crabgrass plant response rating (crabgrass; [10]): 10 | Corn plant response rating (corn; [5]): 0 | Corn plant response rating (corn; [6]): 0 | Corn plant response rating (corn; [11]): 0 | Plant response rating, Corn (corn; [7]): 1 | Plant response rating, Corn (corn; [8]): 0 | Corn plant response rating (corn; [9]): 0 | Corn plant response rating (corn; [10]): 6 | Plant response rating, Barnyardgrass (0 to 10 scale, 0 is no effect, 10 is complete control) (bamyardgrass; [1]): 0 | Barnyardgrass plant response rating (0 to 10 scale, 0 is no effect, 10 is complete control) (bamyardgrass; [2]): 0 | Barnyardgrass plant response rating (bamyardgrass; [3]): 0 | Barnyardgrass plant response rating (bamyardgrass; [4]): 0 | Soybean plant response rating (soybean; [5]): 1 | Soybean plant response rating (soybean; [6]): 3 | Plant response rating, Soybean (soybean; [7]): 5 | Plant response rating, Soybean (soybean; [8]): 0 | Soybean plant response rating (soybean; [9]): 0 | Plant response rating, Rice (0 to 10 scale, 0 is no effect, 10 is complete control) (rice; [1]): 0 | Rice plant response rating (0 to 10 scale, 0 is no effect, 10 is complete control) (rice; [2]): 0 | Rice plant response rating (rice; [3]): 0 | Rice plant response rating (rice; [4]): 0 | Blackgrass plant response rating (blackgrass; [5]): 2 | Blackgrass plant response rating (blackgrass; [6]): 5 | Blackgrass plant response rating (blackgrass; [11]): 6 | Plant response rating, Blackgrass (blackgrass; [7]): 9 | Plant response rating, Blackgrass (blackgrass; [8]): 5 | Blackgrass plant response rating (blackgrass; [9]): 7 | Blackgrass plant response rating (blackgrass; [12]): 8 | Blackgrass plant response rating (blackgrass; [10]): 10 | Plant response rating, Morningglory (morningglory; [7]): 5 | Plant response rating, Morningglory (morningglory; [8]): 0 | Morningglory plant response rating (morningglory; [9]): 0 | Morningglory plant response rating (morningglory; [10]): 3 | Cocklebur plant response rating (cocklebur; [5]): 0 | Cocklebur plant response rating (cocklebur; [6]): 0 | Cocklebur plant response rating (cocklebur; [11]): 0 | Plant response rating, Cocklebur (cocklebur; [7]): 4 | Plant response rating, Cocklebur (cocklebur; [8]): 0 | Cocklebur plant response rating (cocklebur; [9]): 0 | Cocklebur plant response rating (cocklebur; [12]): 0 | Cocklebur plant response rating (cocklebur; [10]): 5 | Redroot pigweed plant response rating (pigweed; [5]): 0 | Redroot pigweed plant response rating (pigweed; [6]): 0 | Plant response rating, Redroot pigweed (pigweed; [7]): 5 | Plant response rating, Redroot pigweed (pigweed; [8]): 0 | Redroot pigweed plant response rating (pigweed; [9]): 0 | Redroot pigweed plant response rating (pigweed; [10]): 10 | Wild oats plant response rating (wild oat; [5]): 0 | Wild oats plant response rating (wild oat; [6]): 0 | Plant response rating, Wild oats (wild oat; [7]): 8 | Plant response rating, Wild oats (wild oat; [8]): 0 | Wild oats plant response rating (wild oat; [9]): 2 | Wild oats plant response rating (wild oat; [10]): 9 | Sugarbeets plant response rating (sugar beet; [5]): 0 | Sugarbeets plant response rating (sugar beet; [6]): 0 | Plant response rating, Sugarbeets (sugar beet; [7]): 7 | Plant response rating, Sugarbeets (sugar beet; [8]): 0 | Sugarbeets plant response rating (sugar beet; [9]): 4 | Sugarbeets plant response rating (sugar beet; [10]): 7 | Wheat plant response rating (wheat; [5]): 0 | Wheat plant response rating (wheat; [6]): 0 | Plant response rating, Wheat (wheat; [7]): 2 | Plant response rating, Wheat (wheat; [8]): 0 | Wheat plant response rating (wheat; [9]): 0 | Wheat plant response rating (wheat; [10]): 7 | Rape plant response rating (rape; [5]): 0 | Rape plant response rating (rape; [6]): 0 | Plant response rating, Rape (rape; [7]): 4 | Plant response rating, Rape (rape; [8]): 0 | Rape plant response rating (rape; [9]): 0 | Rape plant response rating (rape; [10]): 10 | B. signalgrass plant response rating (surinam grass; [5]): 0 | B. signalgrass plant response rating (surinam grass; [6]): 0 | B. signalgrass plant response rating (surinam grass; Postemergence, Rate 250 g/ha, scale 0 to 10, 0 no effect, 10 complete control): 2 | Plant response rating, B. signalgrass (surinam grass; [7]): 7 | Plant response rating, B. signalgrass (surinam grass; [8]): 2 | B. signalgrass plant response rating (surinam grass; [9]): 3 | B. signalgrass plant response rating (surinam grass; [12]): 8 | B. signalgrass plant response rating (surinam grass; Preemergence, Rate 500 g/ha, scale 0 to 10, 0 is no effect, 10 is complete control): 9 | Nutsedge plant response rating (purple nutsedge; [5]): 0 | Nutsedge plant response rating (purple nutsedge; [6]): 0 | Plant response rating, Nutsedge (purple nutsedge; [8]): 0 | Nutsedge plant response rating (purple nutsedge; [9]): 0 | Nutsedge plant response rating (purple nutsedge; [10]): 0 | Velvetleaf plant response rating (velvetleaf; [5]): 2 | Velvetleaf plant response rating (velvetleaf; [6]): 4 | Plant response rating, Velvetleaf (velvetleaf; [7]): 7 | Plant response rating, Velvetleaf (velvetleaf; [8]): 3 | Velvetleaf plant response rating (velvetleaf; [9]): 6 | Velvetleaf plant response rating (velvetleaf; [10]): 8
